Our source for the Activity values is ChEMBL document CHEMBL4118148, “Design, synthesis and cardiovascular evaluation of some aminoisopropanoloxy derivatives of xanthone” (Bioorg Med Chem, 2018).

Holding throughout (type): functional
Assay [1] deals with Rattus norvegicus. As to the kind of experiment: Hypotensive activity in normotensive Wistar rat assessed as systolic blood pressure at 0.5 mg/kg, iv measured after 20 mins (reference value: 147.7 +/- 5.9 mmHg).
In assay [2] the test system is Rattus norvegicus. As to the kind of experiment: Hypotensive activity in normotensive Wistar rat assessed as systolic blood pressure at 2.5 mg/kg, iv measured after 30 mins (reference value: 148.5 +/- 2.6 mmHg).
In assay [3] the test system is Rattus norvegicus. As to the kind of experiment: Hypotensive activity in normotensive Wistar rat assessed as diastolic blood pressure at 2.5 mg/kg, iv measured after 60 mins (reference value: 116.2 +/- 1.2 mmHg).
Assay [4] deals with Rattus norvegicus. As to the kind of experiment: Hypotensive activity in normotensive Wistar rat assessed as diastolic blood pressure at 2.5 mg/kg, iv measured after 5 mins (reference value: 116.2 +/- 1.2 mmHg).

For `Cl.O=c1c2ccccc2oc2c(OCC(O)CN3CCN(c4ccccn4)CC3)cccc12` (racemic), in the assay with Rattus norvegicus [1], the Activity worked out at 143 mmHg.

With `COc1ccc(CCNCC(O)COc2cccc3c(=O)c4ccccc4oc23)cc1OC.Cl` (racemic), the results for the Activity with Rattus norvegicus [2], in the assay with Rattus norvegicus [3] and in the assay with Rattus norvegicus [4] were 130.7 mmHg, 100.7 mmHg and 107 mmHg, respectively.
